Legend:
Type in all cases: physicochemical
[1] = Stability study of micellar solid from spray drying of I (HPLC area %)
Description: (§1) A small amount of the solid (about 10 mg from example 1) was weighed into a weighing bottle and placed in a chamber with controlled relative humidity for 4 weeks and the percentage of water absorbed was calculated form the weight gain. The sample was also assayed by HPLC against an external standard on a Waters 2690 HPLC at 276 nm. The data was processed using Waters Millennium software version 3.2. The thermal stability also was determined at 60° C. and at 40° C./75% relative humidity. The purity of the sample was determined by assaying weighed aliquots by HPLC against an external standard.

[2] = Hygroscopicity: water absorbed in controlled relative humidity chamber (weight gain); conditions: 4 weeks
Description: as §1

[3] = Solubility of compound II in solvents
Description: Compound II (2 g) was slowly dispersed in 70% IPA (20 mL) and water (14 mL) was added. […] The IPA was distilled using rotary evaporator to achieve an aqueous solution containing ca. […] of II. The concentrated aqueous solution was spray dried using a Buchi B-290 spray drier and the operating parameters were adjusted as follows: […]

Question: What does the source list for `O=C(O)CCc1cc(C(=O)c2ccc(OC3CCCC3)cc2O)ccc1OCc1ccc2c(O)noc2c1` [I]?
Answer: Area % ([1]; 25° C./60% RH (closed), 4 weeks): 99.88%; Area % ([1]; 25° C./60% RH (closed), To): 99.88%; Area % ([1]; 40° C./75% RH (closed), 4 weeks): 99.91%; Area % ([1]; 40° C./75% RH (closed), To): 99.88%; Area % ([1]; 40° C./75% RH (open), 5 weeks): 99.26%; Area % ([1]; 40° C./75% RH (open), To): 99.81%; Area % ([1]; 60° C. (closed), 5 weeks): 99.72%; Area % ([1]; 60° C. (closed), To): 99.81%; thermal stability ([1]; at 40 and 60° C. over the duration of the assay): thermally stable; hygroscopicity [2]: not hygroscopic

Question: Which solubility ([3]; aqueous with cosolvent or surfactant or cyclodextrin, in 70% IPA/H2O) does the source give for `CCC(=O)[N-]S(=O)(=O)c1ccc(NC(=O)Cc2ccc(Br)c(Oc3cc(Cl)cc(C#N)c3)c2F)c(Cl)c1.[Na+]` [II] here?
Answer: ~47000 µg/mL

Question: What about the solubility ([3]; in water) of the same compound?
Answer: ~4000 µg/mL

Question: And the solubility ([3]; organic solvent or mixture, in IPA)?
Answer: ~80 µg/mL
